Source: patent publication US9862708B2, “Pyrazolone compounds and uses thereof” (Tempest Therapeutics, Inc., priority 2014, dated 2018)

Target: T1, human PPARα (Homo sapiens, UniProt Q07869)
T1 construct: host or cells: proprietary non-human mammalian cells
T1 sequence (Q07869 1-468): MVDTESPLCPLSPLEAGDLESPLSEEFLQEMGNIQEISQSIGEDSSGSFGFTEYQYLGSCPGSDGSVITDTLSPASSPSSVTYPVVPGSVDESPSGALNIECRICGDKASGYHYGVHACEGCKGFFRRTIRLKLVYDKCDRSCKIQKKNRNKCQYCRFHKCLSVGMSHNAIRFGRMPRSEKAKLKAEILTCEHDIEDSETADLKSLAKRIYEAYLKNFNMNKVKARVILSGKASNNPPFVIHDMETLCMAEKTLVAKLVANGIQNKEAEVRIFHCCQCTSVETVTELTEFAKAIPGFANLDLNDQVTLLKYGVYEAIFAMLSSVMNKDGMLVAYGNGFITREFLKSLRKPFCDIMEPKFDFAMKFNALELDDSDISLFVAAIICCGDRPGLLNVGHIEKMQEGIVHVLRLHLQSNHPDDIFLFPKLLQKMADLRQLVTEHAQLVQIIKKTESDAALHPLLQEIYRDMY
Experiment: Human PPARα Reporter Assay (luciferase, Indigo Biosciences)
Assay type: cell-based
Conditions: antagonism; luciferase reporter cells, overnight incubation; read-out: PPARα IC50
Method: Human PPARα Reporter Assay
The screening of test compounds for agonist or antagonist activities against human PPARα receptors was performed using a commercial kit, Human PPARα Reporter Assay System (Indigo Biosciences, Cat. #IB00111).
This nuclear receptor assay system utilizes proprietary non-human mammalian cells engineered to provide constitutive, high-level expression of Human PPARα. Because these cells incorporate a PPARα-responsive luciferase reporter gene, quantifying expressed luciferase activity provides a sensitive surrogate measure of PPARα activity in the treated cells. The primary application of this reporter assay system is in the screening of test samples to quantify any functional activity, either agonist or antagonist, that they may exert against human PPARα.
Briefly, reporter cells are dispensed into wells of the assay plate and then immediately dosed with test compounds. Following an overnight incubation, the treatment media is discarded and Luciferase Detection Reagent (LDR) is added. The intensity of light emission from the ensuing luciferase reaction provides a sensitive measure that is directly proportional to the relative level of PPARα activation in the reporter cells.

Compound | IC50 [nM]
CC1(C)C(=O)N(c2ccc(C(F)(F)F)cc2)N=C1CCCc1ccc(OC(C)(C(=O)O)c2ccccc2)cc1 (single isomer, unassigned) [53-enantiomer#1, 2-(4-(3-(4,4-dimethyl-5-oxo-1-(4-(trifluoromethyl)phenyl)-4,5-dihydro-1H-pyrazol-3-yl)propyl)phenoxy)-2-phenylpropanoic acid] | 820
CC1(C)C(=O)N(c2ccc(C(F)(F)F)cc2)N=C1CCCc1ccc(OC(C)(C(=O)O)c2ccccc2)cc1 (single isomer, unassigned) [53-enantiomer#2, 2-(4-(3-(4,4-dimethyl-5-oxo-1-(4-(trifluoromethyl)phenyl)-4,5-dihydro-1H-pyrazol-3-yl)propyl)phenoxy)-2-phenylpropanoic acid] | 2.1
CC1(C)C(=O)N(c2cccc(C(F)(F)F)c2)N=C1CCCc1ccc(OC(C)(C(=O)O)c2ccccc2)cc1 (single isomer, unassigned) [54-enantiomer#2, 2-(4-(3-(4,4-dimethyl-5-oxo-1-(3-(trifluoromethyl)phenyl)-4,5-dihydro-1H-pyrazol-3-yl)propyl)phenoxy)-2-phenylpropanoic acid] | 8.9
CC(C)(Oc1ccc(CCCC2=NN(Cc3ccc(C(C)(C)C)cc3)C(=O)C2(C)C)cc1)C(=O)NS(=O)(=O)c1ccccc1 [Example 2, 2-(4-(3-(1-(4-(tert-butyl)benzyl)-4,4-dimethyl-5-oxo-4,5-dihydro-1H-pyrazol-3-yl)propyl)phenoxy)-2-methyl-N-(phenylsulfonyl)propanamide] | 2.1
CC(C)(Oc1ccc(CCCC2=NN(Cc3ccc(C(C)(C)C)cc3)C(=O)C2(C)C)cc1)C(=O)NCc1ccccc1 [Example 3, N-benzyl-2-(4-(3-(1-(4-(tert-butyl)benzyl)-4,4-dimethyl-5-oxo-4,5-dihydro-1H-pyrazol-3-yl)propyl)phenoxy)-2-methylpropanamide] | 160
CC(C)(Oc1ccc(CCCC2=NN(Cc3ccc(C(C)(C)C)cc3)C(=O)C2(C)C)cc1)C(=O)NCC1CCCCC1 [Example 6, 2-(4-(3-(1-(4-(tert-butyl)benzyl)-4,4-dimethyl-5-oxo-4,5-dihydro-1H-pyrazol-3-yl)propyl)phenoxy)-N-(cyclohexylmethyl)-2-methylpropanamide] | 420
CC(C)(Oc1ccc(CCCC2=NN(Cc3cccc(C(F)(F)F)c3)C(=O)C2(C)C)cc1)C(=O)O [Example 7, 2-(4-(3-(4,4-dimethyl-5-oxo-1-(3-(trifluoromethyl)benzyl)-4,5-dihydro-1H-pyrazol-3-yl)propyl)phenoxy)-2-methylpropanoic acid] | 900
CC(C)(Oc1ccc(CCCC2=NN(CCc3ccccc3)C(=O)C2(C)C)cc1)C(=O)O [Example 9, 2-(4-(3-(4,4-dimethyl-5-oxo-1-phenethyl-4,5-dihydro-H-pyrazol-3-yl)propyl)phenoxy)-2-methylpropanoic acid] | 1000
CC(C)(Oc1ccc(CCCC2=NN(c3ccccc3)C(=O)C2(C)C)cc1)C(=O)O [Example 10, 2-(4-(3-(4,4-dimethyl-5-oxo-1-phenyl-4,5-dihydro-1H-pyrazol-3-yl)propyl)phenoxy)-2-methylpropanoic acid] | 410
CC(C)(Oc1ccc(CCCC2=NN(c3ccc(C(C)(C)C)cc3)C(=O)C2(C)C)cc1)C(=O)O [Example 11, 2-(4-(3-(1-(4-(tert-butyl)phenyl)-4,4-dimethyl-5-oxo-4,5-dihydro-1H-pyrazol-3-yl)propyl)phenoxy)-2-methylpropanoic acid] | 8.1
CC(C)(Oc1ccc(CCCC2=NN(Cc3ccc(Br)cc3)C(=O)C2(C)C)cc1)C(=O)O [Example 13, 2-(4-(3-(1-(4-bromobenzyl)-4,4-dimethyl-5-oxo-4,5-dihydro-1H-pyrazol-3-yl)propyl)phenoxy)-2-methylpropanoic acid] | 360
CC(C)(Oc1ccc(CCCC2=NN(Cc3ccc(-c4ccccc4)cc3)C(=O)C2(C)C)cc1)C(=O)O [Example 14, 2-(4-(3-(1-([1,1′-biphenyl]-4-ylmethyl)-4,4-dimethyl-5-oxo-4,5-dihydro-1H-pyrazol-3-yl)propyl)phenoxy)-2-methylpropanoic acid] | 260
CC(C)(Oc1ccc(CCCC2=NN(Cc3ccc(C4=CCCCC4)cc3)C(=O)C2(C)C)cc1)C(=O)O [Example 15, 2-(4-(3-(4,4-dimethyl-5-oxo-1-((2′,3′,4′,5′-tetrahydro-[1,1′-biphenyl]-4-yl)methyl)-4,5-dihydro-1H-pyrazol-3-yl)propyl)phenoxy)-2-methylpropanoic acid] | 130
CC(C)(Oc1ccc(CCCC2=NN(Cc3ccc(C4CCCCC4)cc3)C(=O)C2(C)C)cc1)C(=O)O [Example 17, 2-(4-(3-(1-(4-cyclohexylbenzyl)-4,4-dimethyl-5-oxo-4,5-dihydro-1H-pyrazol-3-yl)propyl)phenoxy)-2-methylpropanoic acid] | 140
CC(C)(Oc1ccc(CCCC2=NN(Cc3ccc(C(F)(F)F)c(F)c3)C(=O)C2(C)C)cc1)C(=O)O [Example 18, 2-(4-(3-(1-(3-fluoro-4-(trifluoromethyl)benzyl)-4,4-dimethyl-5-oxo-4,5-dihydro-1H-pyrazol-3-yl)propyl)phenoxy)-2-methylpropanoic acid] | 120
CC(C)(Oc1ccc(CCCC2=NN(c3ccc(C(F)(F)F)cn3)C(=O)C2(C)C)cc1)C(=O)O [Example 21, 2-(4-(3-(4,4-dimethyl-5-oxo-1-(5-(trifluoromethyl)pyridin-2-yl)-4,5-dihydro-1H-pyrazol-3-yl)propyl)phenoxy)-2-methylpropanoic acid] | 35

More lines, in order of falling IC50, values ahead:

IC50 [nM] | Compound
640 | CC1(C)C(=O)N(c2cccc(C(F)(F)F)c2)N=C1CCCc1ccc(OC(C)(C(=O)O)c2ccccc2)cc1 (single isomer, unassigned) [54-enantiomer#1, 2-(4-(3-(4,4-dimethyl-5-oxo-1-(3-(trifluoromethyl)phenyl)-4,5-dihydro-1H-pyrazol-3-yl)propyl)phenoxy)-2-phenylpropanoic acid]
280 | CC(C)(Oc1ccc(CCCC2=NN(Cc3ccc(C(C)(C)C)cc3)C(=O)C2(C)C)cc1)C(=O)NCc1ccncc1 [Example 5, 2-(4-(3-(1-(4-(tert-butyl)benzyl)-4,4-dimethyl-5-oxo-4,5-dihydro-1H-pyrazol-3-yl)propyl)phenoxy)-2-methyl-N-(pyridin-4-ylmethyl)propanamide]
240 | CC(C)(Oc1ccc(CCCC2=NN(Cc3ccc(C(C)(C)C)cc3)C(=O)C2(C)C)cc1)C(=O)NCc1ccccn1 [Example 4, 2-(4-(3-(1-(4-(tert-butyl)benzyl)-4,4-dimethyl-5-oxo-4,5-dihydro-1H-pyrazol-3-yl)propyl)phenoxy)-2-methyl-N-(pyridin-2-ylmethyl)propanamide]
140 | CC(C)(Oc1ccc(CCCC2=NN(Cc3ccc(C4CC4)cc3)C(=O)C2(C)C)cc1)C(=O)O [Example 16, 2-(4-(3-(1-(4-cyclopropylbenzyl)-4,4-dimethyl-5-oxo-4,5-dihydro-1H-pyrazol-3-yl)propyl)phenoxy)-2-methylpropanoic acid]
62 | CC(C)(Oc1ccc(CCCC2=NN(Cc3ccc(C(F)(F)F)cc3)C(=O)C2(C)C)cc1)C(=O)O [Example 8, 2-(4-(3-(4,4-dimethyl-5-oxo-1-(4-(trifluoromethyl)benzyl)-4,5-dihydro-1H-pyrazol-3-yl)propyl)phenoxy)-2-methylpropanoic acid]
22 | CC(C)c1ccc(CN2N=C(CCCc3ccc(OC(C)(C)C(=O)O)cc3)C(C)(C)C2=O)cc1 [Example 12, 2-(4-(3-(1-(4-isopropylbenzyl)-4,4-dimethyl-5-oxo-4,5-dihydro-1H-pyrazol-3-yl)propyl)phenoxy)-2-methylpropanoic acid]
19 | CC(C)(Oc1ccc(CCCC2=NN(c3cccc(C(F)(F)F)c3)C(=O)C2(C)C)cc1)C(=O)O [Example 20, 2-(4-(3-(4,4-dimethyl-5-oxo-1-(3-(trifluoromethyl)phenyl)-4,5-dihydro-1H-pyrazol-3-yl)propyl)phenoxy)-2-methylpropanoic acid]
15 | CC(C)(Oc1ccc(CCCC2=NN(Cc3ccc(C(C)(C)C)cc3)C(=O)C2(C)C)cc1)C(=O)O [Example 1, 2-(4-(3-(1-(4-(tert-butyl)benzyl)-4,4-dimethyl-5-oxo-4,5-dihydro-1H-pyrazol-3-yl)propyl)phenoxy)-2-methylpropanoic acid]
3.8 | CC(C)(Oc1ccc(CCCC2=NN(c3ccc(C(F)(F)F)cc3)C(=O)C2(C)C)cc1)C(=O)O [Example 19, 2-(4-(3-(4,4-dimethyl-5-oxo-1-(4-(trifluoromethyl)phenyl)-4,5-dihydro-1H-pyrazol-3-yl)propyl)phenoxy)-2-methylpropanoic acid]
